Consider 18 compounds from patent US9458463B2, “Method for treatment of diabetes by a small molecule inhibitor for GRK5” (MAX-PLANCK-GESELLSCHAFT ZUR FÖRDERUNG DER WISSENSCHAFTEN …, priority 2010, dated 2016).

Molecules are shown by their SMILES.

The target of the first assay is T1, full length GRK5 (Homo sapiens, UniProt P34947).
T1 construct: 6/2 fold concentrated full length GRK5 (Millipore, #14-714) in reaction buffer; purchased Millipore 14-714
T1 sequence (P34947 whole entry): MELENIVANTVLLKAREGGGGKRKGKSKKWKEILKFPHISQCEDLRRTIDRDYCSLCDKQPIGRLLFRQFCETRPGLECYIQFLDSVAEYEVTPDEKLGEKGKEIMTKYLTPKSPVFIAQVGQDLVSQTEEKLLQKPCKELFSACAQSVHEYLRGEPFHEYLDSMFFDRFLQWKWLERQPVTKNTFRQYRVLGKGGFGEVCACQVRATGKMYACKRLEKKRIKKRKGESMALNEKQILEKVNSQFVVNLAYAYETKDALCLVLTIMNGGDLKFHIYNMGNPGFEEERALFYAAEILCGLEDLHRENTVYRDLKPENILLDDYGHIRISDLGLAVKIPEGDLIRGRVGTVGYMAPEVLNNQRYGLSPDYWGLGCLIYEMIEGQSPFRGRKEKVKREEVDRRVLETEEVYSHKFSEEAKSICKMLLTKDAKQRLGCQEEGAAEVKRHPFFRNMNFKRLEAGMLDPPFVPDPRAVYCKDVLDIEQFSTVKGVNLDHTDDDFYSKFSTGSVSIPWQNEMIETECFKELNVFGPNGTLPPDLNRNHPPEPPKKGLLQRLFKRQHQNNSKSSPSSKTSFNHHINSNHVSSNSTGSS
Kind of assay: GRK5 kinase activity assay, ADP Glo Kinase Assay technology (Promega). The class given is biochemical. The following applies: group II; ADP Glo Kinase Assay (Table 9-B). How it is done:
The maximal compound assay concentration was set to 100 μM, representing the compound assay concentration used in the primary screen.
Increasing concentrations of GRK5 are incubated together with 100 μM ATP in the absence and presence of 10 μM casein in a reaction buffer. Within this incubation non-phosphorylated casein is converted into phosphorylated casein and ATP is converted into ADP. Thereafter nonconverted ATP is digested into AMP by addition of the ADP-Glo™ Reagent. Subsequently the ADP that is produced by GRK5 activity is phosphorylated back to ATP by addition of Promega Kinase Detection Reagent. These ATP levels serve as measure for the GRK5 activity and are quantified by a luciferase/luciferin reaction.
For GRK5 kinase activity assay, the following protocol was used:
The reaction buffer used was composed of: 20 mM MES pH 6.0, 1 mM DTT, 10 mM MgCl2, 0.01% Tween20 and the reaction volume was 6 μL.
Firstly 4 μL 6/4 fold concentrated substrate and 6/4 fold concentrated ATP in 1 fold concentrated reaction buffer are added to each well of the assay plate. Subsequently 67 nL […] concentrated test compound in 100% DMSO are added to each well except to C− and C+ wells using pin tool. Then 67 nL 100% DMSO are pipetted to C− (no kinase, no compound) and C+ (no compound) wells using pin-tool and 2 μL reaction buffer are added to C− wells. […] After incubation for 120 min. at room temperature 6 μL ADP-Glo™ Reagent (ADP Glo™ Kinase Assay Kit: Promega, V9101) are added to each well to stop the kinase reaction and deplete the unconsumed ATP. After a second incubation for 40 min. at room temperature 12 μL of Kinase Detection Reagent are added to convert ADP to ATP and start luciferase/luciferin reaction for detection of ATP. […] Finally, after incubation for 40 min at room temperature the luminescence intensity was measured.
The activity of the compounds was classified according to IC50 for binding sites of Grk5 into the following ranges:
8800 Customer compounds were screened for their ability to inhibit the enzymatic activity of GRK5. Screening was performed using the ADP Glo™ Kinase Assay technology (Promega). The small molecular weight compounds were delivered at 10 mM stock concentration and were tested at a final assay concentration of 100 μM.
IC50 values were determined in triplicates at 12 concentrations with a dilution factor of three. Triplicates were measured on three different assay plates. The maximal compound assay concentration was set to 100 μM representing the compound assay concentration used in the primary screen. A larger maximal compound assay concentration could not be achieved since the maximal compound concentration on the compound plates was 10 mM (>1% DMSO concentration in the assay).
For orientation: ADP-Glo first removes unused ATP, then detects ADP through luciferase.
The term IC50 denotes the concentration that gives 50% inhibition. A lower IC50 goes with inhibition by little substance. Consider `Cc1[nH]c(/C=C2\C(=O)Nc3ccc(C(=O)O)cc32)c(C)c1C(=O)N[C@H](C)c1ccccc1` [II.137, (3Z)-3-[3,5-dimethyl-4-((1R)-1-phenyl-ethylcarbamoyl)-1H-pyrrol-2-ylmethylene]-2-oxo-2,3-dihydro-1H-indole-5-carboxylic acid], for which the IC50 lay in the range of 100 to 1000 nM. Consider `CCC(NC(=O)c1ccc2c(c1)/C(=C/c1[nH]c(C)c(CCC(=O)O)c1C)C(=O)N2)c1cccc(Cl)c1` (stereo not drawn) [II.134, (3Z)-3-(5-{5-[1-(3-chloro-phenyl)-propylcarbamoyl]-2-oxo-1,2-dihydro-indol-3-ylidenemethyl}-2,4-dimethyl-1H-pyrrol-3-yl)-propionic acid], for which the IC50 was in the range of 1000 to 2000 nM. The compound `Cc1[nH]c(/C=C2\C(=O)Nc3ccc(C(=O)O)cc32)c(C)c1C(=O)NCCN1CCCC1` [II.2] gave an IC50 of 1000 to 2000 nM.

The same assay, now with this note: group II; final assay concentration 5 μM.
As usually defined, the inhibition is how much of the control response was suppressed. Read a high inhibition as strong suppression. On to `CCOC(=O)c1c(C)[nH]c(/C=C2\C(=O)Nc3ccc(C(=O)N[C@@H](Cc4ccccc4)C(=O)OC)cc32)c1C` [II.157, (3Z)-5-[5-((1S)-1-methoxycarbonyl-2-phenyl-ethylcarbamoyl)-2-oxo-1,2-dihydro-indol-3-ylidenemethyl]-2,4-dimethyl-1H-pyrrole-3-carboxylic II. acid ester ethyl], for which the inhibition at 5 µM amounted to 74%.

The compound `Cc1[nH]c(/C=C2\C(=O)Nc3ccc(C(=O)NCc4c(F)cccc4F)cc32)c(C)c1C(=O)N1CCC[C@H]1CN1CCCC1` [II.189, (3Z)-3-[3,5-dimethyl-4-((2S)-2-pyrrolidin-1-ylmethyl-pyrrolidine-1-carbonyl)-1H-pyrrol-2-ylmethylene]-2-oxo-2,3-dihydro-1H-indole-5-carboxylic acid 2,6-difluoro-benzylamide] had an inhibition at 5 µM of 98%. The same measure, in the same setting: in the case of `Cc1[nH]c(/C=C2\C(=O)Nc3ccc(C(=O)O)cc32)c(C)c1C(=O)NC(Cc1ccccc1)C(=O)O` (stereo in doubt) [II.153, (3Z)-3-[4-((1R)-1-carboxy-2-phenyl-ethylcarbamoyl)-3,5-dimethyl-1H-pyrrol-2-ylmethylene]-2-oxo-2,3-dihydro-1H-indole-5-carboxylic acid] it was 56%; in that of `Cc1[nH]c(/C=C2\C(=O)Nc3ccc(C(=O)NCc4c(F)cccc4F)cc32)c(C)c1C(=O)N1CCC[C@@H]1CN1CCCC1` [II.191, (3Z)-3-[3,5-dimethyl-4-((2R)-2-pyrrolidin-1-ylmethyl-pyrrolidine-1-carbonyl)-1H-pyrrol-2-ylmethylene]-2-oxo-2,3-dihydro-1H-indole-5-carboxylic acid 2,6-difluoro-benzylamide], 66%; in that of `COc1ccc([C@@H](C)NC(=O)c2ccc3c(c2)/C(=C/c2c[nH]c4ccccc24)C(=O)N3)cc1` [II.193, (3Z)-3-(1H-indol-3-ylmethylene)-2-oxo-2,3-dihydro-1H-indole-5-carboxylic acid [(1R)-1-(4-methoxy-phenyl)-ethyl]-amide], 88%. Take `Cc1[nH]c(/C=C2\C(=O)Nc3ccc(C(=O)NCc4c(F)ccc(Cl)c4F)cc32)c(C)c1C(=O)N1CCC[C@H]1CN1CCCC1` [II.187, (3Z)-3-[3,5-dimethyl-4-((2S)-2-pyrrolidin-1-ylmethyl-pyrrolidine-1-carbonyl)-1H-pyrrol-2-ylmethylene]-2-oxo-2,3-dihydro-1H-indole-5-carboxylic acid 3-chloro-2,6-difluoro-benzylamide]: the inhibition at 5 µM was determined as 76%. Turning to `CC[C@H](NC(=O)c1ccc2c(c1)/C(=C/c1ccc(C(=O)N3CCN(C)CC3)cc1)C(=O)N2)c1ccccc1` [II.58, (3Z)-3-{4-[(4-methylpiperazin-1-yl)carbonyl]benzylidene}-2-oxo-N-[(1S)-1-phenylpropyl]indoline-5-carboxamide], the inhibition at 5 µM stood at 96%. With `COC(=O)CC[C@H](NC(=O)c1c(C)[nH]c(/C=C2\C(=O)Nc3ccc(C(=O)N[C@@H](Cc4ccccc4)C(=O)OC)cc32)c1C)C(=O)OC` [II.167, (3Z)-2-({5-[5-((1S)-1-methoxycarbonyl-2-phenyl-ethylcarbamoyl)-2-oxo-1,2-dihydro-indol-3-ylidenemethyl]-2,4-dimethyl-1H-pyrrole-3-carbonyl}-amino)-(S)-pentanedioic acid dimethyl ester], testing at 5 µM gave an inhibition of 81%. `Cc1[nH]c(/C=C2\C(=O)Nc3ccc(C(=O)NCc4c(F)cccc4F)cc32)c(C)c1C(=O)NCCN1CCCCC1` [II.192, (3Z)-3-[3,5-dimethyl-4-(2-piperidin-1-yl-ethylcarbamoyl)-1H-pyrrol-2-ylmethylene]-2-oxo-2,3-dihydro-1H-indole-5-carboxylic acid 2,6-difluoro-benzylamide] had an inhibition at 5 µM of 86%. On the same count and under the same terms, in the case of `C[C@@H](NC(=O)c1ccc2c(c1)/C(=C/Nc1ccc(CN3CCCCC3)cc1)C(=O)N2)C1CCCCC1` [II.77, (3Z)-N-[(1R)-1-cyclohexylethyl]-2-oxo-3-({[4-(piperidin-1-ylmethyl)phenyl]amino}methylene)indoline-5-carboxamide] it was 98%; in that of `COc1ccc([C@@H](C)NC(=O)c2ccc3c(c2)/C(=C/c2[nH]c(C)cc2C)C(=O)N3)cc1` [II.170, (3Z)-3-(3,5-dimethyl-1H-pyrrol-2-ylmethylene)-2-oxo-2,3-dihydro-1H-indole-5-carboxylic acid [(1R)-1-(4-methoxy-phenyl)-ethyl]-amide], 58%; in that of `Cc1[nH]c(/C=C2\C(=O)Nc3ccc(C(=O)N[C@H](C)c4ccc(Cl)cc4)cc32)c(C)c1C(=O)N1CCCCC1` [II.66, (3Z)-N-[(1R)-1-(4-chlorophenyl)ethyl]-3-{[3,5-dimethyl-4-(piperidin-1-ylcarbonyl)-1H-pyrrol-2-yl]methylene}-2-oxoindoline-5-carboxamide], 76%.

Compound `Cc1[nH]c(/C=C2\C(=O)Nc3ccc(C(=O)O)cc32)c(C)c1C(=O)NC(C)C(=O)O` (stereo in doubt) [II.148, (3Z)-3-[4-(1-carboxy-(1R)-ethylcarbamoyl)-3,5-dimethyl-1H-pyrrol-2-ylmethylene]-2-oxo-2,3-dihydro-1H-indole-5-carboxylic acid] returned an inhibition at 5 µM of 48%. On the same count and under the same terms, for `CC[C@@H](NC(=O)c1ccc2c(c1)/C(=C/c1[nH]c(C)c(C(=O)N3CCN(C4CCN(C)CC4)CC3)c1C)C(=O)N2)c1ccccc1` [II.181, (3Z)-3-{3,5-dimethyl-4-[4-(1-methyl-piperidin-4-yl)-piperazine-1-carbonyyl]-1H-pyrrol-2-ylmethylene}-2-oxo-2,3-dihydro-1H-indole-5-carboxylic acid ((1R)-1-phenyl-propyl)-amide] the value was 49%.

With `Cc1[nH]c(/C=C2\C(=O)Nc3ccc(C(=O)NCc4c(F)cccc4F)cc32)c(C)c1C(=O)N1CC[C@H](N(C)C)C1` [II.190, (3Z)-3-[4-((3S)-3-dimethylamino-pyrrolidine-1-carbonyl)-3,5-dimethyl-1H-pyrrol-2-ylmethylene]-2-oxo-2,3-dihydro-1H-indole-5-carboxylic acid 2,6-difluoro-benzylamide], testing at 5 µM gave an inhibition of 61%.
